Measured values reported in patent US11382907B2, “Methods and compositions for treating aging-associated impairments using CCR3-inhibitors” (Alkahest, Inc., priority 2017, dated 2022).
“Also recorded” adds a separate entry of the source.

Assays:
[1] = Tissue distribution of [14C]-radiolabeled Compound 1 (LSC, whole body autoradiography); format: in vivo, C57BL/6JOlaHsd mice; details: 10 mg/kg oral, [14C]-label; 1, 24, 168 hours
Procedure: The distribution of Compound 1 in mouse tissues was determined after oral administration of which was [^14C]-radiolabeled (“Labeled Compound”) to male pigmented C57BL/6JOlaHsd mice (Harlan Labs, BV). The Labeled Compound was administered at 10 mg/kg of body weight, corresponding to 17 μmol/kg. One animal was sacrificed after 1, 24, and 168 hours post-administration. Blood, plasma, and eye radioactivity concentrations were measured using liquid scintillation counting (LSC). Tissue and organ concentrations were determined by whole body autoradiography technique (QWBA). […]
The following sections were taken at different levels through the embedded animal, and whole body sections selected at 5-7 levels in order to allow for quantitative evaluation of radioactivity: adrenal glands; blood; bone marrow; brain; eye (lens); epididymis; fat (white and brown); Harderian gland; heart; kidneys; liver; lung; muscle; pituitary; pancreas; prostate, spinal cord; spleen salivary gland; skin; testis; thyroid; thymus; uveal tract. […]
FIG. 7 depicts a chart of values reporting the area under the curve (AUC) for all three time points, and quantifies each tissue's exposure to the Labeled POI after administration of the compound.

[2] = tested on: human eosinophils activated by human eotaxin-1; test: Eosinophil shape change (ESC) assay (FACS, whole blood); format: cell-based; details: whole blood from humans treated with Compound 1, incubated with human recombinant eotaxin-1
Procedure: The ESC determines the shape change of human eosinophils activated by human eotaxin-1 (PreProTech, Rocky Hill, N.J.) compared to native eosinophils. The change is detected as the change in the forward-scatter measured by FACS (fluorescence activated cell sorter). The mean forward scatter of the autofluorescence (eosinophil) population for each sample was determined in conjunction with the mean of each set of sample triplicates. Methods of determining ESC have been previously described and are known in the art.
Whole blood from humans treated with Compound 1 was incubated with human recombinant eotaxin-1 to trigger eosinophil shape change (FIG. 34A) or CCR3 receptor internalization (FIG. 34B).

[3] = tested on: twenty-four-month-old C57 mice; test: Overnight fecal output, water and food intake in aged mice; format: in vivo; details: 4 weeks continuous infusion by osmotic pump
Procedure: Twenty-four-month-old C57 mice were treated for 4 weeks with continuous infusion of Compound 1 or vehicle by Alzet osmotic pump, which were implanted to continuously deliver the two treatments.
Treatment Groups: • Treatment Group 1, Old Controls: Aged C57BL/6 mice (n=15), aged 23 months, received infusion of vehicle by Alzet mini-pump, model 2002 (0.5 uL/hr), for four weeks with one replacement. • Treatment Group 2, Compound 1 (dose 2) in Old: Aged C57BL/6 mice (n=15), aged 23 months, received infusion of ˜50 mg/ml Compound 1 by Alzet mini-pump, model 2002 (0.5 uL/hr), for four weeks with one replacement.
Fecal output was measured by weighing the dry weight of fecal pellets overnight (FIG. 22). […] is a well-known symptom of Parkinson's disease. Water and food intake were measured over the same time period.

[4] = tested on: three-month-old C57 mice treated with LPS; test: Open Field test (anxiety) in mice given daily LPS; format: in vivo; details: 3-month-old mice; daily LPS 0.5 mg/kg IP; 30 mg/kg PO BID, after 1 week
Procedure: Open Field is used to evaluate general locomotor activity and exploratory behavior in a novel environment. Mice are brought to the experimental room for at least 30 min for acclimation to the experimental room conditions (dim lighting) prior to testing. The testing arena consists of a 50 cm×50 cm square arena. Mice are placed in the center of an arena and tracked for 15 minutes. Time spent in the peripheral and centers zones is analyzed, along with rearing behavior. 70% ethanol is used to clean all surfaces between trials.
Three-month-old C57 mice were given daily doses of lipopolysaccharide (LPS) 0.5 mg/kg IP to induce inflammation and treated with Compound 1 for up to 4 weeks.
Treatment Groups: • Treatment Group 1, Vehicle treatment: 3-month-old C57 mice (n=10) received daily IP injection of LPS for 7 weeks and twice daily (BID) oral gavage (PO) treatment of vehicle solution for up to 4 weeks. • Treatment Group 2, Vehicle treatment and Oxazolone treatment: 3-month-old C57 mice (n=10) received daily IP injection of LPS for 7 weeks and twice daily (BID) oral gavage (PO) treatment of vehicle solution for up to 4 weeks. • Treatment Group 3, Compound 1 treatment and Oxazolone treatment: 3-month-old C57 mice (n=9) received daily IP injection of LPS for 7 weeks and twice daily (BID) oral gavage (PO) treatment of Compound 1, 30 mg/kg, for up to 4 weeks.

[5] = tested on: CD68+ activated microglia; test: IHC of CD68+ activated microglia in hippocampus of mice given daily LPS; format: in vivo, C57Bl/6 mice; details: 3-month-old mice, daily LPS IP 7 weeks, 30 mg/kg PO BID 4 weeks
Excerpt: Mice were taken down on the day following the end of behavior testing. Anesthesia was induced by 2,2,2-tribromoethanol and mice were subsequently perfused with 0.9% saline trans-cardially. The brains were dissected and cut sagitally in two even halves. One half was snap frozen for later use in dry ice, and the other was fixed in 4% paraformaldehyde in PBS for use in immunohistochemistry. After two days of fixation, the hemibrains were transferred to a 30% sucrose in PBS solution and changed after two days. Hemibrains were sectioned at 30 um on a microtome at −22° C. Brain sections were stored in cryoprotectant media at −20° C. until needed for staining. Blocking was done on free floating sections in the appropriate serum at 10% serum in PBST 0.5%. Primary antibodies were incubated overnight at 4 C. For light microscopy, the following antibodies were used in the given concentrations: DCX, 1:200, Santa Cruz BioTech, CD68, 1:1000. AbD Serotec. Secondary biotinylated antibodies were applied the next day at a concentration of 1:300. Staining visualization was achieved by reaction with the ABC kit (Vector) and diaminobenzidine (Sigma). Dehydration of the mounted slides was achieved using ethanol and xylene dips. Images were acquired on a Leica light microscope at 5× magnification. […]

Cc1cc(C(=O)N(C)C)cc(NC(=O)[C@H]2CCC(=O)N2C2CCN(Cc3ccc(Cl)c(C)c3)CC2)n1 [Compound 1]
crossing of the blood-brain barrier (tissue AUC of radioactivity) [1]: does not cross the blood-brain barrier (BBB) at significant levels | inhibition of eosinophil shape change versus plasma Compound 1 concentration [2]: robust concentration-dependent effect | fecal output overnight [3]: significantly lower fecal output | food intake overnight [3]: no differences in total food intake | water intake overnight [3]: significantly higher water intake; also recorded: drank significantly more water | anxiety in the Open Field [4]: strongly decreased the increased anxiety; also recorded: decreased the LPS-induced anxiety | CD68+ immunoreactivity (activated microglia) in hippocampus [5]: dramatically decreased CD68+ immunoreactivity; also recorded: robust trend towards decrease
